Assay results published in patent US20220397565A1, “METHODS OF SCREENING AND RELATED SYSTEMS” (RECURSION PHARMACEUTICALS, INC., priority 2021, published 2022).

What was measured:
[1] = tested on: Cells transduced with BacMam BRAF V600E; assay: Morphological profiling of BacMam BRAF V600E transduced cells treated with test agents; type: cell-based; conditions: for side effect score versus disease score (position relative to the funnel, FIG. 10): cells expressing BRAF V600E, varying concentrations of compound, dot plot FIG. 10; for quantified reversal of the disease state (rescue of BRAF V600E overexpression phenotype): morphological profile of treated vs not treated BRAF V600E-transduced cells, 18 compounds tested
From the text: (§1) Morphological profiles may be generated by various methods. In an embodiment, morphologically profiling cells may comprise imaging relevant cells or tracking certain parameters or features of the cells. The tracking may be of staining intensities in one or more imaging channels, correlations between imaging channels, textural patterns, size and shape of cellular structures, geometric relationships between intracellular structures, geometric relationships between adjacent cells, or combinations thereof. Cellular features, such as 100 or more cellular features, 500 or more cellular features, or 1000 or more cellular features, may be tracked when morphologically profiling cells. Among various methods of determining these cellular features, they may be obtained by imaging cells with or without fluorescent or non-fluorescent stains or combinations thereof, and numeric features determined by using deep learning embeddings, hand-tuned feature extraction, or combinations thereof. Other than tracking the cellular features, the morphological profiling may include reducing the output of the cellular features using statistical modeling such as principal component analysis.
Pathogenic and non-pathogenic transduced cells were cultured then morphologically profiled. A heatmap of cosine similarities between all pairs of groups (or reagents), origined by method one were generated (FIG. 7). Shown are cells transduced with BacMam vectors having BRAF V600E, KRAS G12C, KRAS G12D, MFN1, MFN1T109A, CTNNB1B, EPAS1, SMO F460L, ALK, EGFR, and some of their nonsense counterparts. […] Cosine similarities between all pairs of feature vectors that were origin by method two in FIG. 7 (FIG. 8).
Cells transduced with BacMam BRAF V600E were treated with varying concentrations of 18 compounds which include dabrafenib and vemurafenib, which target BRAF, and ulixertinib and MEK162, which target downstream biology. […] The difference in features caused by transducing the cells with BRAF V600E was determined. The effect of compounds on those features was determined within the BRAF V600E-transduced cells and also the effects of compounds on features not related to transduction with BRAF V600E. […] The efficacy of test agents in reversing a disease state can be quantified. This is calculated based on morphological profiling of cells treated with a test agent compared to cells not treated with a test agent.

[2] = tested on: EGFR-overexpressing cells; assay: Morphological profiling of BacMam EGFR transduced cells treated with test agents; type: cell-based; conditions: cosine similarity, treated vs not-treated EGFR overexpressing cells, FIG. 9
From the text: as §1

Cn1cnc2c(F)c(Nc3ccc(Br)cc3F)c(C(=O)NOCCO)cc21 [MEK162]
side effect score versus disease score (position relative to the funnel, FIG. 10) [1]: Separation from the funnel
quantified reversal of the disease state (rescue of BRAF V600E overexpression phenotype) [1]: some of the top test agents

CC(C)Nc1cc(-c2c[nH]c(C(=O)N[C@H](CO)c3cccc(Cl)c3)c2)c(Cl)cn1 [ulixertinib]
side effect score versus disease score (position relative to the funnel, FIG. 10) [1]: Separation from the funnel
quantified reversal of the disease state (rescue of BRAF V600E overexpression phenotype) [1]: some of the top test agents

COc1cc2ncnc(Nc3ccc(F)c(Cl)c3)c2cc1NC(=O)/C=C/CN1CCCCC1 [dacomitinib]
quantification of the reversal of the disease state (modulation of phenotypes of EGFR overexpressing cells) [2]: top two test agents

CC(C)(C)c1nc(-c2cccc(NS(=O)(=O)c3c(F)cccc3F)c2F)c(-c2ccnc(N)n2)s1 [dabrafenib]
side effect score versus disease score (position relative to the funnel, FIG. 10) [1]: Separation from the funnel
quantified reversal of the disease state (rescue of BRAF V600E overexpression phenotype) [1]: some of the top test agents
